Laboratory results reported in patent US8071768B2, “Alkylquinoline and alkylquinazoline kinase modulators” (Janssen Pharmaceutica, N.V., priority 2005, dated 2011).
pIC50: −log10 of the molar value.

Tests used:
[1] = system: MV4-11 tumor xenografts; assay: nude mouse MV4-11 human tumor xenograft regression model; format: in vivo, nude mice; conditions: for decrease of mean tumor volume compared to vehicle-treated group: Day 11; for reduction of final tumor weight compared to vehicle-treated group: eleven days oral dosing
Protocol: Female athymic nude mice (CD-1, nu/nu, 9-10 weeks old) were obtained from Charles River Laboratories (Wilmington, Mass.) and were maintained according to NIH standards. All mice were group housed (5 mice/cage) under clean-room conditions in sterile micro-isolator cages on a 12-hour light/dark cycle in a room maintained at 21-22° C. and 40-50% humidity. Mice were fed irradiated standard rodent diet and water ad libitum. All animals were housed in a Laboratory Animal Medicine facility that is fully accredited by the American Association for Assessment and Accreditation of Laboratory Animal Care (AAALAC). All procedures involving animals were conducted in compliance with the NIH Guide for the Care and Use of Laboratory Animals and all protocols were approved by an Internal Animal Care and Use Committee (IACUC).
The human leukemic MV4-11 cell line was obtained from the American Type Culture Collection (ATCC Number: CRL-9591) and propagated in RPMI medium containing 10% FBS (fetal bovine serum) and 5 ng/mL GM-CSF (R&D Systems). MV4-11 cells are derived from a patient with childhood acute myelomonocytic leukemia with an 11q23 translocation resulting in a MLL gene rearrangement and containing an FLT3-ITD mutation (AML subtype M4)(1,2). MV4-11 cells express constitutively active phosphorylated FLT3 receptor as a result of a naturally occurring FLT3/ITD mutation. Strong anti-tumor activity against MV4-11 tumor growth in the nude mouse tumor xenograft model is anticipated to be a desirable quality of the invention.
(§1) Female athymic nude mice weighing no less than 20-21 grams were inoculated subcutaneously in the left inguinal region of the thigh with 5×10^6 tumor cells in a delivery volume of 0.2 mL. For regression studies, the tumors were allowed to grow to a pre-determined size prior to initiation of dosing.
(See FIG. 2). […] Percent Inhibition was calculated versus the mean tumor weight in the vehicle-treated control group.

[2] = biological target: T1, isolated kinase domain of the human c-kit receptor (Homo sapiens, UniProt P10721); assay: c-Kit Fluorescence Polarization Kinase Assay; format: biochemical; conditions: uncertainty ±10%; read-out: ckit IC50
T1 construct: isolated kinase domain of the human c-kit receptor; purchased ProQinase lot SP005
Protocol: c-Kit Fluorescence Polarization Kinase Assay
The compounds of the present invention are also specific inhibitors of c-Kit. Selection of preferred compounds of Formula I for use as c-Kit inhibitors was performed in the following manner using an in vitro kinase assay to measure inhibition of the isolated kinase domain of the human c-kit receptor in a fluorescence polarization (FP) protocol. The c-kit assay utilized the fluorescein-labeled phosphopeptide and the anti-phosphotyrosine antibody included in the Panvera Phospho-Tyrosine Kinase Kit (Green) supplied by Invitrogen. When c-kit phosphorylated the poly Glu4Tyr, the fluorescein-labeled phosphopeptide was displaced from the anti-phosphotyrosine antibody by the phosphorylated poly Glu4Tyr, thus decreasing the FP value. The c-kit kinase reaction was incubated at room temperature for 45 minutes under the following conditions: 1 nM c-kit (ProQinase, lot SP005), 100 ug/mL poly Glu4Tyr, 50 uM ATP, 5 mM MgCl2, 1 mM DTT, 0.01% Tween-20, 1% DMSO or compound in […], pH 7.5. The kinase reaction was stopped with the addition of EDTA. The fluorescein-labeled phosphopeptide and the anti-phosphotyrosine antibody were added and incubated for 30 minutes at room temperature and fluorescence polarization was read. Data points were an average of triplicate samples. Inhibition and IC50 data analysis were done with GraphPad Prism using a non-linear regression fit with a multiparamater, sigmoidal dose-response (variable slope) equation.

[3] = biological target: T2, TrkB (Homo sapiens, UniProt Q16620); assay: Trk B Fluorescence Polarization Kinase Assay; format: biochemical; conditions: uncertainty ±10%
T2 construct: purchased Upstate 14-507M
Procedure, shortened: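 The TrkB kinase reaction (50 nM enzyme, 20 ug/mL poly Glu4Tyr, 150 uM ATP, 5 mM MgCl2, 1% DMSO) ran 30 minutes at room temperature and was stopped with EDTA. Phosphorylation was detected by fluorescence-polarization displacement of a fluorescein phosphopeptide from an anti-phosphotyrosine antibody. IC50 came from a variable-slope sigmoidal fit of triplicates.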

[4] = system: FLT3; assay: FLT3 phosphorylation in MV4-11 tumors from treated mice (immunoblot); format: in vivo, nude mice; conditions: single dose 100 mg/kg po, tumors harvested 2 hours later
Protocol: To establish further that compounds of the present invention reached the expected target in tumor tissue, the level of FLT3 phosphorylation in tumor tissue obtained from vehicle- and compound-treated mice was measured. Results for Compound 73 and Compound 74 are shown in FIG. 3 and FIG. 4, respectively. For this pharmacodynamic study, a sub-set of 10 mice from the vehicle-treated control group were randomized into two groups of 5 mice each and then treated with another dose of vehicle or compound (100 mg/kg, po). Tumors were harvested 2 hours later and snap frozen for assessment of FLT3 phosphorylation by immunobloting.
Harvested tumors were processed for immunoblot analysis of FLT3 phosphorylation in the following manner: 100 mg of tumor tissue was dounce homogenized in lysis buffer (50 mM Hepes, 150 mM NaCl, 10% Glycerol, 1% Triton-X-100, 10 mM NaF, 1 mM EDTA, 1.5 mM MgCl2, 10 mM NaPyrophosphate) supplemented with phosphatase (Sigma Cat#P2850) and protease inhibitors (Sigma Cat #P8340). Insoluble debris was removed by centrifugation at 1000×g for 5 minutes at 4° C. Cleared lysates ([…] of total potein at 10 mg/ml in lysis buffer) were incubated with 10 μg of agarose conjugated anti-FLT3 antibody, clone C-20 (Santa Cruz cat # sc-479ac), for 2 hours at 4° C. with gentle agitation. […]

[5] = Tolerability in the MV4-11 xenograft study (body weight, overt clinical signs); format: in vivo, nude mice; conditions: 11-day treatment, doses up to 200 mg/kg/day
Protocol: as §1

[6] = biological target: T3, FLT ligand-induced wild-type FLT3 phosphorylation (Homo sapiens, UniProt P36888); assay: Cell-Based FLT3 Receptor Elisa (Baf3 FLT3 cells); conditions: uncertainty ±20%
T3 construct: host or cells: Baf3 (murine B cell lymphoma line)
T3 sequence (P36888 27-993): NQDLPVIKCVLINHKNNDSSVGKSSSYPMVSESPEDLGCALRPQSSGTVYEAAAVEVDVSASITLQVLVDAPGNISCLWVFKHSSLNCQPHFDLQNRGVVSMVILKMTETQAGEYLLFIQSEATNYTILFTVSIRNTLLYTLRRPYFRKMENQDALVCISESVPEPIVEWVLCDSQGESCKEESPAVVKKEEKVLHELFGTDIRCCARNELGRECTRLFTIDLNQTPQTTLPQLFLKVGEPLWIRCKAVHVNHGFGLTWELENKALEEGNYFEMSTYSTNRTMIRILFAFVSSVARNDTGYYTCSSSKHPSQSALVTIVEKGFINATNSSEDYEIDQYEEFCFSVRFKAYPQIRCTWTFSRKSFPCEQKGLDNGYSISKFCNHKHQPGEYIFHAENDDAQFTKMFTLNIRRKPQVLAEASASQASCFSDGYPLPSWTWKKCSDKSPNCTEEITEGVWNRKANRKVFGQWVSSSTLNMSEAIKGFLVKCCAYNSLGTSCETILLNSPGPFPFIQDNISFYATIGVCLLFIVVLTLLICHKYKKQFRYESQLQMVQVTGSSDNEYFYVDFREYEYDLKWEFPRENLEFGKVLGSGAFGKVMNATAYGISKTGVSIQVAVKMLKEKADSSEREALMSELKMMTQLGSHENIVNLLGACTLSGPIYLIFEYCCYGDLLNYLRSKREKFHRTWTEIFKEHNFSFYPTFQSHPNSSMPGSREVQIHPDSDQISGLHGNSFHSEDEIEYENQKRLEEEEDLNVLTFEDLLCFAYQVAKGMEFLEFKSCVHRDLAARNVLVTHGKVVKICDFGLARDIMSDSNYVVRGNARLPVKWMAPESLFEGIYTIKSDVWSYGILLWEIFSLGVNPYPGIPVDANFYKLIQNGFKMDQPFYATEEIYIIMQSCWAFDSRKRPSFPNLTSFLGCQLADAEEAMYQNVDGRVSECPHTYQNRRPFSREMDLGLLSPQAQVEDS
Protocol: Cell-Based FLT3 Receptor Elisa
Specific cellular inhibition of FLT ligand-induced wild-type FLT3 phosphorylation was measured in the following manner: Baf3 FLT3 cells overexpressing the FLT3 receptor were obtained from Dr. Michael Heinrich (Oregon Health and Sciences University). The Baf3 FLT3 cell lines were created by stable transfection of parental Baf3 cells (a murine B cell lymphoma line dependent on the cytokine IL-3 for growth) with wild-type FLT3. Cells were selected for their ability to grow in the absence of IL-3 and in the presence of FLT3 ligand.
Baf3 cells were maintained in RPMI 1640 with 10% FBS, penn/strep and 10 ng/ml FLT ligand at 37° C., 5% CO2. To measure direct inhibition of the wild-type FLT3 receptor activity and phosphorylation a sandwich ELISA method was developed similar to those developed for other RTKs (3,4). 200 μL of Baf3FLT3 cells (1×10^6/mL) were plated in 96 well dishes in RPMI 1640 with 0.5% serum and 0.01 ng/mL IL-3 for 16 hours prior to 1 hour compound or DMSO vehicle incubation. Cells were treated with 100 ng/mL Flt ligand (R&D Systems Cat# 308-FK) for 10 min. at 37° C. Cells were pelleted, washed and lysed in 100 ul lysis buffer (50 mM Hepes, 150 mM NaCl, 10% Glycerol, 1% Triton-X-100, 10 mM NaF, 1 mM EDTA, 1.5 mM MgCl2, 10 mM NaPyrophosphate) supplemented with phosphatase (Sigma Cat# P2850) and protease inhibitors (Sigma Cat #P8340). […]

T2 sequence (Q16620 32-822): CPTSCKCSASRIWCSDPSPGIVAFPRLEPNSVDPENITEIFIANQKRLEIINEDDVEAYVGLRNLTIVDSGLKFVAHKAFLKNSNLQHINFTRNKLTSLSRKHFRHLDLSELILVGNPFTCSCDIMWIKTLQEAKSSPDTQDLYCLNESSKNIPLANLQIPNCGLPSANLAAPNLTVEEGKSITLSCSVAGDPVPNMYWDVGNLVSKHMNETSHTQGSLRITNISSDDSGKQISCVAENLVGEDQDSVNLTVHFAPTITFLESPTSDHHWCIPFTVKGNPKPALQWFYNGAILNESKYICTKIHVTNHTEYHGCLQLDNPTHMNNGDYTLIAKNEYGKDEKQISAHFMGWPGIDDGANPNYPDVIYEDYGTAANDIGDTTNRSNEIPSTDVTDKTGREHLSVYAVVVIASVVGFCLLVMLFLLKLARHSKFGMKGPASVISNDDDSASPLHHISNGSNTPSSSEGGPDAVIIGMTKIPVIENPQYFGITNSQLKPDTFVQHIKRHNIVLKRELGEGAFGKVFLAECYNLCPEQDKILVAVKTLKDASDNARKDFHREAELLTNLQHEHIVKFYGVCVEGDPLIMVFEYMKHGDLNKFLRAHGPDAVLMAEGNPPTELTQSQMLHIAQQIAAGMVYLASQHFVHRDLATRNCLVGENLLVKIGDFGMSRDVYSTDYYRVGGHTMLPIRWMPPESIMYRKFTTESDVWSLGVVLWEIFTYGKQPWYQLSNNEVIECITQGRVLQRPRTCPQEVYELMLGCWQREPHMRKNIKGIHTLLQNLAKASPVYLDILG
T1 sequence (P10721 589-937 limits assumed): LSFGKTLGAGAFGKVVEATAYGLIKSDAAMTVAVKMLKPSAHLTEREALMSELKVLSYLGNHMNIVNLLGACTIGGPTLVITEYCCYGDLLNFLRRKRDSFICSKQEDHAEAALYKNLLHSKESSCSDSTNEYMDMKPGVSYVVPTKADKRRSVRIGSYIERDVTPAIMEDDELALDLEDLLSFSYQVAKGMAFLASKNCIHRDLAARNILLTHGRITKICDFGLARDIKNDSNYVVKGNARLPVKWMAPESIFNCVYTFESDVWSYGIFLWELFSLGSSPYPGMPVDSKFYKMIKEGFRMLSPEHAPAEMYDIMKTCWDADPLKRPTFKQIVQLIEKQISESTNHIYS

SMILES	final tumors in some mice ([1]; high dose)	pIC50 [2]	pIC50 [3]	level of FLT3 phosphorylation in MV4-11 tumors compared to vehicle-treated mice [4]	adverse effects on body weight [5]	overt toxicity [5]	decrease of mean tumor volume compared to vehicle-treated group ([1]; 10 mg/kg b.i.d. oral)	reduction of final tumor weight compared to vehicle-treated group ([1]; 10 mg/kg)	decrease of mean tumor volume compared to vehicle-treated group ([1]; 30 mg/kg b.i.d. oral)	reduction of final tumor weight compared to vehicle-treated group ([1]; 30 mg/kg)	tumor regression: decrease versus starting mean tumor volume on Day 1 ([1]; 100 mg/kg b.i.d. oral)	decrease of mean tumor volume compared to vehicle-treated group ([1]; 100 mg/kg b.i.d. oral)	reduction of final tumor weight compared to vehicle-treated group ([1]; 100 mg/kg)	pIC50 [6]
CN1CCN(CCCOc2ccc3c(C4CCN(C(=O)Nc5ccc(N6CCOCC6)cc5)CC4)ncnc3c2)CC1 [Compound 73, 4-{7-[3-(4-Methyl-piperazin-1-yl)-propoxy]-quinazolin-4-yl}-piperidine-1-carboxylic acid (4-morpholin-4-yl-phenyl)-amide]	regressed to non-palpable, non-detectable tumors	7.40	< 4.70	biologically significant reduction	no significant adverse effects on body weight	No overt toxicity	–	–	–	–	–	–	–	–
O=C1CCCN1CCOc1ccc2c(C3CCN(C(=O)Nc4ccc(N5CCCC5)cc4)CC3)ncnc2c1 [Compound 74, 4-{7-[2-(2-Oxo-pyrrolidin-1-yl)-ethoxy]-quinazolin-4-yl}-piperidine-1-carboxylic acid (4-pyrrolidin-1-yl-phenyl)-amide]	–	7.89	5.48	biologically significant reduction	no significant adverse effects on body weight	No overt toxicity	22%	12%	54%	43%	79%	96%	91%	–
COc1cc2ncnc(C3CCN(C(=O)Nc4ccc(N5CCN(C)CC5)cc4)CC3)c2cc1OC [Compound 20, 4-(6,7-Dimethoxy-quinazolin-4-yl)-piperidine-1-carboxylic acid [4-(4-methyl-piperazin-1-yl-phenyl)]-amide]	–	–	4.40	–	–	–	–	–	–	–	–	–	–	< 5.52
COc1cc2ncnc(C3CCN(C(=O)Nc4ccc(C(C)O)cc4)CC3)c2cc1OC (stereo not shown) [Compound 55, 4-(6,7-Dimethoxy-quinazolin-4-yl)-piperidine-1-carboxylic acid [4-(1-hydroxy-ethyl)-phenyl]-amide]	–	–	4.41	–	–	–	–	–	–	–	–	–	–	6.00
